Laboratory results as given in PubChem BioAssay AID330 (DTP/NCI, 2004).
Values joined by “and” are separate entries in the source; they are usually repeats but may differ in a detail not shown here. Equal values may be shown once. Inconclusive results and toxic doses are left out. The calls were made as follows: active = survival T/C of 150% or more; inactive = T/C below 125% in these data.

System: P388 leukemia ip, CD2F1 mice, survival T/C
Assay: NCI In Vivo Anticancer Drug Screen. Data for tumor model P388 Leukemia (intraperitoneal) in CD2F1 (CDF1) mice
Conditions: endpoint: median survival time, higher = longer survival
How it was run: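 Mice carrying the transplanted tumor received test compound or vehicle. Survival was recorded in each group, and the value is the treated-group measurement divided by that of the vehicle-treated control group.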

[1] = dose: 50.0 mg/kg/injection, schedule: Q01DX009 (ip), vehicle: saline with Tween-80
[2] = dose: 100.0 mg/kg/injection, schedule: Q01DX009 (ip), vehicle: saline with Tween-80
[3] = dose: 200.0 mg/kg/injection, schedule: Q01DX009 (ip), vehicle: saline with Tween-80
[4] = dose: 50.0 mg/kg/injection, schedule: Q01DX009 (ip), vehicle: other
[5] = dose: 100.0 mg/kg/injection, schedule: Q01DX009 (ip), vehicle: other
[6] = dose: 200.0 mg/kg/injection, schedule: Q01DX009 (ip), vehicle: other

Measured: T/C

O=C(CCCSCCCl)Nc1c([N+](=O)[O-])cc([N+](=O)[O-])cc1S(=O)(=O)O
inactive: dose: 3.13 mg/kg/injection, schedule: Q04DX003 (ip), vehicle: DMSO 110 % of control | dose: 6.25 mg/kg/injection, schedule: Q04DX003 (ip), vehicle: DMSO 111 % of control | dose: 50.0 mg/kg/injection, schedule: Q04DX003 (ip), vehicle: DMSO 118 % of control | dose: 100.0 mg/kg/injection, schedule: Q04DX003 (ip), vehicle: olive oil, sesame oil, peanut oil 120 % of control | dose: 150.0 mg/kg/injection, schedule: Q04DX003 (ip), vehicle: DMSO 114 % of control

CC(C)CCCC(C)C1CCC2C3CCC4C5Oc6ccccc6N=C5CCC4(C)C3CCC12C (stereo not given)
inactive: dose: 60.0 mg/kg/injection, schedule: Q01DX005 (ip), vehicle: Klucel (hydroxypropylcellulose) (HPC) 92 % of control | dose: 120.0 mg/kg/injection, schedule: Q01DX005 (ip), vehicle: Klucel (hydroxypropylcellulose) (HPC) 97 % of control | dose: 240.0 mg/kg/injection, schedule: Q01DX005 (ip), vehicle: Klucel (hydroxypropylcellulose) (HPC) 93 % of control

CCC(=O)/C=C/c1ccc(N(Cl)Cl)cc1
inactive: dose: 25.0 mg/kg/injection, schedule: Q01DX001 (ip), vehicle: Klucel (hydroxypropylcellulose) (HPC) 107 % of control | dose: 50.0 mg/kg/injection, schedule: Q01DX001 (ip), vehicle: Klucel (hydroxypropylcellulose) (HPC) 106 % of control | dose: 100.0 mg/kg/injection, schedule: Q01DX001 (ip), vehicle: Klucel (hydroxypropylcellulose) (HPC) 104 % of control

O=C([O-])CN(CCN(CC(=O)[O-])CC(=O)O)CC(=O)O.[Fe+5].[Na+]
inactive: [1] 91 % of control | [2] 91 % of control | dose: 100.0 mg/kg/injection, schedule: Q04DX003 (ip), vehicle: saline sonified 86 % of control | [3] 91 % of control | dose: 200.0 mg/kg/injection, schedule: Q04DX003 (ip), vehicle: saline sonified 90 % of control

CC(=O)OC1OC(CO)C(OCc2ccccc2)C(OCc2ccccc2)C1OC(C)=O (stereo not given)
inactive: dose: 4.0 mg/kg/injection, schedule: Q01DX009 (ip), vehicle: other 116 % of control | dose: 8.0 mg/kg/injection, schedule: Q01DX009 (ip), vehicle: other 104 % of control | dose: 16.0 mg/kg/injection, schedule: Q01DX009 (ip), vehicle: other 100 % of control | dose: 32.0 mg/kg/injection, schedule: Q01DX009 (ip), vehicle: other 92 % of control | [4] 99 % of control | dose: 64.0 mg/kg/injection, schedule: Q01DX009 (ip), vehicle: other 98 % of control | [5] 99 % of control | [6] 99 % of control | dose: 400.0 mg/kg/injection, schedule: Q01DX009 (ip), vehicle: other 99 % of control

COc1ccc(C2OCOCC2C)cc1 (stereo not given)
inactive: dose: 25.0 mg/kg/injection, schedule: Q01DX009 (ip), vehicle: saline with Tween-80 103 % of control | [1] 100 % of control | [2] 103 % of control | [3] 101 % of control | dose: 400.0 mg/kg/injection, schedule: Q01DX009 (ip), vehicle: saline with Tween-80 95 % of control

CN(C)C1CS(=O)(=O)OC2=C1COCC2 (stereo not given)
inactive: dose: 60.0 mg/kg/injection, schedule: Q01DX005 (ip), vehicle: saline with Tween-80 101 % of control | dose: 120.0 mg/kg/injection, schedule: Q01DX005 (ip), vehicle: saline with Tween-80 105 % of control

CCCCCCC(/C=C/c1ccc(N(C)C)cc1)=N\O
inactive: [2] 93 % of control | [3] 93 % of control

[Co].[N-]=C=S.[N-]=C=S.[N-]=C=S.[NH-]CC[N-]CC[NH-]
inactive: dose: 2.5 mg/kg/injection, schedule: Q01DX009 (ip), vehicle: saline 114 % of control | dose: 5.0 mg/kg/injection, schedule: Q01DX009 (ip), vehicle: saline 114 % of control | dose: 10.0 mg/kg/injection, schedule: Q01DX009 (ip), vehicle: saline 107 % of control | dose: 22.0 mg/kg/injection, schedule: Q01DX009 (ip), vehicle: saline 88 % of control | dose: 44.0 mg/kg/injection, schedule: Q01DX009 (ip), vehicle: saline 100 % of control | dose: 50.0 mg/kg/injection, schedule: Q01DX009 (ip), vehicle: saline 118 % of control

COC(CCC(C)C1OC23CC(OC(=O)CC(C(C)O)OC(=O)CC(O)(O2)C(C)CC3(C)C)C1C)c1cccc(O)c1 (stereo not given)
inactive: dose: 3.12 micrograms/kg/injection, schedule: Q01DX009 (ip), vehicle: saline + Tween-80 + alcohol 101 % of control | dose: 6.25 micrograms/kg/injection, schedule: Q01DX009 (ip), vehicle: saline + Tween-80 + alcohol 107 % of control and 109 % of control and 86 % of control | dose: 12.5 micrograms/kg/injection, schedule: Q01DX009 (ip), vehicle: saline + Tween-80 + alcohol 108 % of control | dose: 25.0 micrograms/kg/injection, schedule: Q01DX009 (ip), vehicle: saline + Tween-80 + alcohol 111 % of control and 117 % of control | dose: 50.0 micrograms/kg/injection, schedule: Q01DX009 (ip), vehicle: saline + Tween-80 + alcohol 115 % of control and 117 % of control

C[N+](C)(C)CCBr
inactive: dose: 3.12 mg/kg/injection, schedule: Q01DX009 (ip), vehicle: saline 100 % of control | dose: 6.25 mg/kg/injection, schedule: Q01DX009 (ip), vehicle: saline 104 % of control | dose: 12.5 mg/kg/injection, schedule: Q01DX009 (ip), vehicle: saline 101 % of control | dose: 12.5 mg/kg/injection, schedule: Q04DX003 (ip), vehicle: saline 105 % of control | dose: 25.0 mg/kg/injection, schedule: Q01DX009 (ip), vehicle: saline 101 % of control | dose: 25.0 mg/kg/injection, schedule: Q04DX003 (ip), vehicle: saline 100 % of control

CCOC(=O)NN(CC(=O)OCc1ccccc1)N=O
inactive: dose: 12.5 mg/kg/injection, schedule: Q01DX009 (ip), vehicle: other 109 % of control | dose: 25.0 mg/kg/injection, schedule: Q01DX009 (ip), vehicle: other 94 % of control | [4] 100 % of control | [5] 102 % of control | [6] 98 % of control

CCCCCCCCCCCCCC[N+]1(CC)CCCCC1
inactive: dose: 0.19 mg/kg/injection, schedule: Q01DX009 (ip), vehicle: saline 113 % of control and 115 % of control | dose: 0.39 mg/kg/injection, schedule: Q01DX009 (ip), vehicle: saline 111 % of control and 113 % of control and 118 % of control | dose: 0.78 mg/kg/injection, schedule: Q01DX009 (ip), vehicle: saline 120 % of control and 94 % of control | dose: 1.56 mg/kg/injection, schedule: Q01DX009 (ip), vehicle: saline 109 % of control | dose: 1.56 mg/kg/injection, schedule: Q04DX003 (ip), vehicle: saline 113 % of control

Cc1ccc(Nc2nnc(-c3ccc4c(c3)OCO4)o2)c(C)c1
inactive: dose: 50.0 mg/kg/injection, schedule: Q01DX005 (ip), vehicle: Klucel (hydroxypropylcellulose) (HPC) 97 % of control | dose: 100.0 mg/kg/injection, schedule: Q01DX005 (ip), vehicle: Klucel (hydroxypropylcellulose) (HPC) 97 % of control | dose: 200.0 mg/kg/injection, schedule: Q01DX005 (ip), vehicle: Klucel (hydroxypropylcellulose) (HPC) 100 % of control

COC(C(=O)C(OC(C)=O)C(C)OC(C)=O)C1Cc2cc3cc(OC4CC(OC5CC(OC(C)=O)C(OC(C)=O)C(C)O5)C(OC(C)=O)C(C)O4)c(C)c(OC(C)=O)c3c(OC(C)=O)c2C(=O)C1OC1CC(OC2CC(OC(C)=O)C(OC3CC(C)(OC(C)=O)C(OC(C)=O)C(C)O3)C(C)O2)C(OC(C)=O)C(C)O1 (stereo not given)
inactive: dose: 0.13 mg/kg/injection, schedule: Q01DX009 (ip), vehicle: water 98 % of control | dose: 0.25 mg/kg/injection, schedule: Q01DX009 (ip), vehicle: water 99 % of control | dose: 0.5 mg/kg/injection, schedule: Q01DX009 (ip), vehicle: water 105 % of control | dose: 1.0 mg/kg/injection, schedule: Q01DX009 (ip), vehicle: water 105 % of control | dose: 2.0 mg/kg/injection, schedule: Q01DX009 (ip), vehicle: water 107 % of control | dose: 4.0 mg/kg/injection, schedule: Q01DX009 (ip), vehicle: water 111 % of control | dose: 8.0 mg/kg/injection, schedule: Q01DX009 (ip), vehicle: water 114 % of control | dose: 11.5 mg/kg/injection, schedule: Q01DX009 (ip), vehicle: water 106 % of control | dose: 23.0 mg/kg/injection, schedule: Q01DX009 (ip), vehicle: water 108 % of control | dose: 46.0 mg/kg/injection, schedule: Q01DX009 (ip), vehicle: water 115 % of control

Cc1ccc(OC(=O)c2ccc3ccccc3n2)cc1
inactive: dose: 100.0 mg/kg/injection, schedule: Q04DX002 (ip), vehicle: saline with Tween-80 101 % of control | dose: 200.0 mg/kg/injection, schedule: Q04DX002 (ip), vehicle: saline with Tween-80 94 % of control | dose: 400.0 mg/kg/injection, schedule: Q04DX002 (ip), vehicle: saline with Tween-80 94 % of control

CC1(C)C(C#N)C(=O)N(Cc2ccccc2)C(=O)C1C#N (stereo not given)
inactive: [1] 100 % of control | [2] 104 % of control | [3] 113 % of control
